Data on eleven molecules can be found in ChEMBL document CHEMBL1201862, “PubChem BioAssay data set” (2004).

Test systems include 786-0; MDA-N; ACHN; SR; OVCAR-3; PC-3; A498; T47D; BT-549; HT-29; RPMI-8226; UACC-62; HCC 2998; OVCAR-4; OVCAR-5; UACC-257; CAKI-1; NCI-H460; DU-145; NCI/ADR-RES.
What all share (assay): NCI-60 cell line screen, 48 h

Molecules are shown by their SMILES.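 Briefly, cells in 96-well plates were exposed to five compound concentrations for 48 h, and endpoints were estimated by linear interpolation. At the GI50, growth is halved.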 Activity calls are given as the source filed them. No stated cut-off is given here; in the data, active = GI50 up to about 1.1 µM and inactive = higher.

In the case of `COc1ccc2cc(NC(=O)Nn3cnnc3)ccc2c1`, the GI50 with 786-0, with MDA-N, with ACHN, in the experiment on SR, in the experiment with OVCAR-3 and with PC-3 was > 100 µM (inactive) in each case. Moreover, the GI50 in the experiment on A498, in the experiment on T47D, in the experiment on BT-549, with HT-29, in the experiment on RPMI-8226 and with UACC-62 was > 100 µM (inactive) in each case. For the same molecule, the GI50 in the experiment with HCC 2998, in the experiment on OVCAR-4, in the experiment with OVCAR-5, with UACC-257, in the experiment with CAKI-1 and in the experiment on NCI-H460 was > 100 µM (inactive) throughout. Also, the GI50 in the experiment with DU-145 was > 100 µM (inactive).

`Cc1nnc2n(c1=O)CCN2C`: the GI50 in the experiment with 786-0, in the experiment on MDA-N, in the experiment on ACHN, with SR, in the experiment with OVCAR-3 and in the experiment on PC-3 was > 100 µM (inactive) in each case. For the same molecule, the GI50 in the experiment on T47D, with BT-549, in the experiment with HT-29, in the experiment on RPMI-8226, with UACC-62 and with HCC 2998 was > 100 µM (inactive) throughout. The GI50 in the experiment with OVCAR-4, in the experiment on OVCAR-5, with NCI-H460 and with DU-145 was > 100 µM (inactive) in each case.

As for `CC(=O)O[C@H]1CC2C(C3CCC(C(C)CCC(=O)O)[C@]31C)[C@H](OC(C)=O)C[C@@H]1CC3(CC[C@]21C)OOC1(CC[C@]2(C)C4C[C@H](OC(C)=O)[C@]5(C)C(C(C)CCC(=O)O)CCC5C4[C@H](OC(C)=O)C[C@@H]2C1)OO3` (stereo partly drawn), the GI50 in the experiment with 786-0 was 2.76 µM (inactive); in the experiment on MDA-N, 2.31 µM (inactive); in the experiment with ACHN, 1.71 µM (inactive); in the experiment with SR, 3.3 µM (inactive); in the experiment with OVCAR-3 it was 1.8 µM (inactive); in the experiment on NCI/ADR-RES, 2.63 µM (inactive). Moreover, the GI50 in the experiment with PC-3 was 1.69 µM (inactive); with BT-549 it was 1.56 µM (inactive); with HT-29, 2.57 µM (inactive); in the experiment with RPMI-8226, 2.76 µM (inactive); in the experiment with HCC 2998, 2.03 µM (inactive); with OVCAR-4, 2.8 µM (inactive). Also, the GI50 is 1.78 µM (inactive) in the experiment on OVCAR-5; 2.15 µM (inactive) in the experiment with UACC-257; 2.19 µM (inactive) in the experiment with CAKI-1; 1.48 µM (inactive) with NCI-H460; 1.2 µM (inactive) in the experiment on DU-145.

`Cc1cccc(CNNC(=O)c2cc[n+]([BH2-]C#N)cc2)c1`: the GI50 in the experiment on 786-0 is 30.7 µM (inactive); in the experiment on MDA-N, 29.2 µM (inactive); with ACHN, 42.6 µM (inactive); in the experiment on SR, 32.3 µM (inactive); in the experiment with OVCAR-3 it was 32.1 µM (inactive); with NCI/ADR-RES it was 24.7 µM (inactive). The GI50 is 31.6 µM (inactive) in the experiment with PC-3; 24.7 µM (inactive) with A498; 42.5 µM (inactive) in the experiment with BT-549; 29.3 µM (inactive) with HT-29; 24.8 µM (inactive) in the experiment with RPMI-8226; 62.7 µM (inactive) in the experiment with UACC-62. Besides, the GI50 is 22.4 µM (inactive) with HCC 2998; 42 µM (inactive) in the experiment with OVCAR-4; 37.5 µM (inactive) in the experiment on OVCAR-5; 37.6 µM (inactive) with UACC-257; 32.4 µM (inactive) in the experiment with CAKI-1; 36.5 µM (inactive) with NCI-H460. Besides, in the experiment on DU-145, the GI50 is 24.7 µM (inactive).

Consider `Fc1ccc(/N=N/N2CCCC2)cc1`, for which the GI50 with 786-0 was > 100 µM (inactive); in the experiment with MDA-N, 32.4 µM (inactive); in the experiment with ACHN it was 68.4 µM (inactive); with SR, 28.4 µM (inactive); in the experiment with OVCAR-3, > 100 µM (inactive); in the experiment with A498, > 100 µM (inactive). Further, the GI50 was 19.2 µM (inactive) in the experiment on T47D; 41.8 µM (inactive) in the experiment on BT-549; > 100 µM (inactive) with HT-29; 22.3 µM (inactive) in the experiment with RPMI-8226; 7.08 µM (inactive) in the experiment on UACC-62; 15.5 µM (inactive) with HCC 2998. In addition, the GI50 is > 100 µM (inactive) with OVCAR-4; > 100 µM (inactive) in the experiment with OVCAR-5; 57.4 µM (inactive) in the experiment on UACC-257; > 100 µM (inactive) in the experiment on CAKI-1; 15.7 µM (inactive) in the experiment on NCI-H460; 52.5 µM (inactive) in the experiment on DU-145.

For `CCCCCCNCCCNc1c2cc(OC)ccc2nc2cccc([N+](=O)[O-])c12`, the GI50 was 0.0834 µM (active) in the experiment with 786-0; 0.14 µM (active) in the experiment on ACHN; 0.0173 µM (active) in the experiment on SR; 0.0966 µM (active) with OVCAR-3; 0.658 µM (active) in the experiment on NCI/ADR-RES; 0.144 µM (active) in the experiment on PC-3. Besides, the GI50 with A498 is 1.62 µM (inactive); in the experiment on T47D, 0.109 µM (active); in the experiment with BT-549, 0.809 µM (active); in the experiment on HT-29 it was 0.0326 µM (active); with RPMI-8226, < 0.0289 µM (active); in the experiment on UACC-62, 0.143 µM (active). Moreover, the GI50 in the experiment with HCC 2998 was 0.0203 µM (active); in the experiment on OVCAR-4 it was 0.113 µM (active); in the experiment on OVCAR-5, 0.135 µM (active); with UACC-257 it was 0.366 µM (active); with CAKI-1, 0.211 µM (active); in the experiment with NCI-H460, 0.0336 µM (active). Moreover, the GI50 in the experiment with DU-145 is 0.0413 µM (active).

In the case of `COc1ccc(/C=C2\CCC(CN3CCOCC3)C2=O)cc1` (stereo not drawn), the GI50 in the experiment on 786-0 is 1.65 µM (inactive); with MDA-N, 2.79 µM (inactive); with ACHN, 4.73 µM (inactive); in the experiment with SR it was 1.46 µM (inactive); with OVCAR-3 it was 3.28 µM (inactive); in the experiment with NCI/ADR-RES it was 2.62 µM (inactive). Also, the GI50 in the experiment on PC-3 was 3.15 µM (inactive); in the experiment on A498 it was 9.44 µM (inactive); in the experiment with BT-549 it was 2.25 µM (inactive); in the experiment on HT-29, 2.44 µM (inactive); in the experiment with RPMI-8226, 0.552 µM (active); with UACC-62 it was 11.8 µM (inactive). Moreover, the GI50 with HCC 2998 was 5.48 µM (inactive); in the experiment with OVCAR-4 it was 5.96 µM (inactive); in the experiment with OVCAR-5, 9.06 µM (inactive); in the experiment with UACC-257, 2.37 µM (inactive); in the experiment with CAKI-1, 1.99 µM (inactive); with NCI-H460, 17.8 µM (inactive). For the same molecule, the GI50 with DU-145 is 2.23 µM (inactive).

Turning to `O=C(Cn1c(=O)oc2ccccc21)N(c1ccccc1)c1ccccc1`, the GI50 in the experiment on 786-0 was > 100 µM (inactive); in the experiment with MDA-N, > 100 µM (inactive); in the experiment with ACHN, > 100 µM (inactive); in the experiment on SR it was > 100 µM (inactive); in the experiment on OVCAR-3, > 100 µM (inactive); in the experiment with NCI/ADR-RES, 77.6 µM (inactive). Also, the GI50 with PC-3, in the experiment on A498, with BT-549, in the experiment with HT-29, with RPMI-8226 and with UACC-62 was > 100 µM (inactive) throughout. Moreover, the GI50 in the experiment with OVCAR-5, in the experiment with UACC-257, in the experiment with CAKI-1, in the experiment with NCI-H460 and with DU-145 was > 100 µM (inactive) throughout.

On to `COC(C(=O)NN)c1ccccc1` (stereo not drawn), for which the GI50 with 786-0, in the experiment with MDA-N, in the experiment with ACHN, in the experiment with SR, in the experiment on OVCAR-3 and in the experiment with NCI/ADR-RES was > 100 µM (inactive) throughout. In addition, the GI50 in the experiment with PC-3, in the experiment with BT-549, in the experiment with HT-29, in the experiment with RPMI-8226, in the experiment on UACC-62 and with HCC 2998 was > 100 µM (inactive) in each case. In addition, the GI50 in the experiment on OVCAR-5, in the experiment on UACC-257, in the experiment on CAKI-1, in the experiment on NCI-H460 and in the experiment with DU-145 was > 100 µM (inactive) in each case.

Regarding `CC(C)OC(=O)C1=C2c3ncccc3C(=O)N2[C@@H](Cl)[C@@H](Cl)[C@@H]1Cl`, the GI50 in the experiment with 786-0 is 73.8 µM (inactive); in the experiment with MDA-N it was 74.1 µM (inactive); in the experiment on ACHN it was > 100 µM (inactive); in the experiment on SR, 49.5 µM (inactive); in the experiment on OVCAR-3, > 100 µM (inactive); in the experiment with NCI/ADR-RES, > 100 µM (inactive). In addition, the GI50 with PC-3 was > 100 µM (inactive); in the experiment with A498, > 100 µM (inactive); with BT-549, > 100 µM (inactive); in the experiment on HT-29, > 100 µM (inactive); in the experiment with RPMI-8226 it was 29.8 µM (inactive); in the experiment on UACC-62, > 100 µM (inactive). Moreover, the GI50 in the experiment on HCC 2998, with OVCAR-4, in the experiment with OVCAR-5, in the experiment with UACC-257, in the experiment with CAKI-1 and in the experiment on NCI-H460 was > 100 µM (inactive) throughout. Further, the GI50 with DU-145 was > 100 µM (inactive).

Take `O=c1c(Cl)c(Cl)c(=O)c2sc3cc(Cl)ccc3[nH]c1=2`: the GI50 is > 100 µM (inactive) in the experiment on 786-0; 53.1 µM (inactive) in the experiment on ACHN; 7.48 µM (inactive) with SR; 15 µM (inactive) in the experiment with OVCAR-3; 5.36 µM (inactive) with NCI/ADR-RES; 32.6 µM (inactive) in the experiment with PC-3. Moreover, the GI50 in the experiment on A498 was > 100 µM (inactive); in the experiment on T47D, 25.9 µM (inactive); in the experiment with BT-549, 2.81 µM (inactive); in the experiment with HT-29 it was > 100 µM (inactive); with RPMI-8226 it was 4 µM (inactive); with UACC-62, 23.4 µM (inactive). For the same molecule, the GI50 is 5.66 µM (inactive) in the experiment on OVCAR-4; 29.6 µM (inactive) in the experiment with OVCAR-5; 15.3 µM (inactive) with UACC-257; > 100 µM (inactive) in the experiment on CAKI-1; > 100 µM (inactive) in the experiment on NCI-H460; > 100 µM (inactive) in the experiment on DU-145.
